This note sets out measurements from PubChem BioAssay AID1996.

Converted amounts (≈) assume the structure as drawn.

The conditions of the data set: buffer; pH 7.4; 200.0 µM.
In general, kinetic solubility refers to solubility judged after dilution from a stock solution rather than from solid. The molecule `Nc1ccc(Oc2ccc3c(c2)C(=O)NC3=O)cc1` yielded a solubility (kinetic) of 35.5 µg/mL (≈ 140 µM).
Consider `O=C(NCCCCc1ccccc1)c1ccccc1F`, for which the kinetic solubility is above 40.7 µg/mL.
Take `COc1cccc(C2Nc3cccc4cccc(c34)N2)c1`: the kinetic solubility worked out at 11.5 µg/mL (≈ 41.6 µM).
As for `Cc1ccccc1CC(=O)NCC1CCCCC1`, the kinetic solubility was determined as 12.9 µg/mL (≈ 52.6 µM).
`Cc1ccc(OCCn2c(=O)oc3ccc(C)cc32)cc1` had a kinetic solubility below 0.6 µg/mL.
In turn, `O=C1/C(=C/c2cccnc2)SC(=S)N1CCc1ccccc1` yielded a kinetic solubility below 0.3 µg/mL.
`CC1(C)CC2(CCO1)C(Nc1ccccc1)=NC(=S)N2CC(N)=O` (stereo unspecified) gave a kinetic solubility above 52 µg/mL.
As for `O=C(c1cc(-c2ccc(Cl)cc2Cl)on1)N1CCCCCC1`, the kinetic solubility worked out at 4.1 µg/mL (≈ 12.1 µM).
In the case of `CC(Oc1ccccc1F)C(=O)NC1CCS(=O)(=O)C1` (stereo unspecified) it was above 45.2 µg/mL.
In the case of `CCOC(=O)[C@@H]1CCN(Cc2ccccc2)C[C@H]1c1ccccc1.Cl` it was 30.7 µg/mL; in that of `O=C(NCCCN1CCOCC1)c1cc(Cl)ccc1Cl`, 41 µg/mL (≈ 129 µM); in that of `Cc1ccccc1C(=O)OC1CCCN(C)C1.Cl` (stereo unspecified), 39.9 µg/mL.
Molecule `CCCCC(=O)Nc1cc(-c2nc3ncccc3o2)ccc1C` had a solubility (kinetic) of 4 µg/mL (≈ 12.9 µM).
In turn, `COc1ccc(C(=O)N2CCN(c3ccccn3)CC2)cc1[N+](=O)[O-]` had a kinetic solubility of 49.5 µg/mL (≈ 145 µM).
On to `CN(C)CCNC(=O)C(=O)Nc1cc2c3c(c1)CCN3C(=O)CC2`, for which the kinetic solubility was above 49.6 µg/mL.
`Nc1ccc(S(=O)(=O)NC(Cc2ccccc2)C(=O)O)cc1` (stereo unspecified) yielded a kinetic solubility of 32.9 µg/mL (≈ 103 µM).
Turning to `COC(=O)CNC(=O)c1cccc(Cl)c1`, the solubility (kinetic) is above 34.1 µg/mL.
For the molecule `O=C(NN1CCOCC1)c1ccc(F)cc1`, the solubility (kinetic) was above 33.6 µg/mL.
In the case of `COc1cc(OC)cc(N2C(=O)CSCC2=O)c1`, the kinetic solubility is above 40.1 µg/mL.
`COC(=O)/C(=C\c1ccc(O)cc1)c1nc2ccccc2[nH]1`: the solubility (kinetic) was 39.6 µg/mL (≈ 135 µM).
The figure for `Cc1cccc(C(=O)NCCCNC(=O)c2ccc(C)nc2)c1` is 44.1 µg/mL (≈ 142 µM); for `CC(Sc1nnc2ccccn12)C(=O)Nc1ccc(N2CCOCC2)cc1` (stereo unspecified) it is above 57.5 µg/mL.
The figure for `O=C(NC(=S)Nc1ccc2oc(=O)ccc2c1)c1ccco1` is 2.8 µg/mL (≈ 8.91 µM); for `Cc1ccc(CCC(=O)Nc2ccc(CC(=O)O)cc2)o1` it is above 43.1 µg/mL; for `CCC(=O)OCC(=O)Nc1ccc2c(c1)OCO2` it is above 37.7 µg/mL.
The molecule `COc1ccc([N+](=O)[O-])cc1NC(=O)c1csc(C)c1` showed a kinetic solubility below 0.3 µg/mL.
Turning to `O=[N+]([O-])c1ncc(Br)cc1Nc1ccccc1`, the kinetic solubility is 16.3 µg/mL (≈ 55.4 µM).
Molecule `NC(=O)C1CCN(CCS(=O)(=O)c2ccc(Cl)cc2)CC1` had a solubility (kinetic) above 49.6 µg/mL.
With `COc1ccccc1N1CCN(c2nccc(C)n2)CC1`, the kinetic solubility amounted to 40.3 µg/mL (≈ 142 µM).
The molecule `Cc1ccc(S(=O)(=O)N2CCN(c3ccccc3)CC2)s1` displayed a solubility (kinetic) of 2.3 µg/mL (≈ 7.13 µM).
Consider `O=C(Cc1ccccc1)Nc1ccc(NC(=O)c2ccco2)cc1Cl`, for which the kinetic solubility was 2.4 µg/mL (≈ 6.76 µM).
Regarding `CCCN1C(=O)CC(Sc2ncccc2C(=O)O)C1=O` (stereo unspecified), the kinetic solubility turned out to be 42.5 µg/mL (≈ 144 µM). Against the preceding molecule, the solubility kinetic is about 18-fold higher.
`NS(=O)(=O)c1ccc(CCNC(=O)c2ccco2)cc1` gave a solubility (kinetic) above 44.1 µg/mL.
`CCCn1c(S(=O)(=O)O)nc2ccccc21` showed a solubility (kinetic) above 36 µg/mL.
Consider `CC12CN3CCN(CC(C3)/C1=N\NC(=O)Nc1cccc(Cl)c1)C2`, for which the kinetic solubility is above 52.2 µg/mL.
Molecule `COc1ccc(C(=O)NCC(=O)N2CCCCC2)cc1OC` showed a solubility (kinetic) above 46 µg/mL.
The figure for `CCCN(C(=O)CSc1ncccn1)C1CCS(=O)(=O)C1` (stereo unspecified) is above 49.4 µg/mL; for `N#Cc1cncc(C#Cc2ccccc2)c1` it is 5.6 µg/mL (≈ 27.4 µM).
In the case of `CSC(=Nc1ccccc1)Nc1ccccc1` it was 6.4 µg/mL (≈ 26.4 µM); in that of `N#Cc1cc2cc3c(cc2nc1SCC(=O)N1CCOCC1)OCO3`, 4.9 µg/mL (≈ 13.7 µM).
`COc1ccc(CCNC(=O)c2ccnc(C(C)(C)C)c2)cc1OC` showed a kinetic solubility above 51.4 µg/mL.
`O=C(NCC1CCCCC1)c1cc([N+](=O)[O-])ccc1Cl`: the kinetic solubility worked out at 8 µg/mL (≈ 27 µM).
As for `Cc1nc(Cl)c2c(n1)NC(=O)CO2`, the kinetic solubility was above 29.9 µg/mL.
In turn, `COC(=O)C(CO)Nc1ncnc2onc(-c3ccc(F)cc3)c12` (stereo unspecified) showed a solubility (kinetic) above 49.8 µg/mL.
`CC(C)(CNC(=O)c1cccc(F)c1)CNC(=O)c1cccc(F)c1` gave a solubility (kinetic) of 13.2 µg/mL (≈ 38.1 µM).
On to `CCc1cc(=O)[nH]c(SCC(=O)N2CCCC2)n1`, for which the kinetic solubility is above 40.1 µg/mL.
The molecule `O=C(NCCNC(=O)c1ccccn1)c1ccc(-c2ccccc2)cc1` showed a kinetic solubility of 3.3 µg/mL (≈ 9.55 µM).
In the case of `O=C(CNC(=O)c1ccc(Cl)cc1)NC(CO)c1ccccc1` (stereo unspecified), the kinetic solubility stood at 32.6 µg/mL (≈ 98 µM).
`CCNc1nc(NCC)nc(Oc2ccc(C(=O)OC)cc2)n1` came in with a solubility (kinetic) of 2.8 µg/mL (≈ 8.82 µM).
`COc1cc2c(cc1OC)CN(C(=O)c1ccc3[nH]c(C)c(C)c3c1)CC2` had a solubility (kinetic) of 6.9 µg/mL (≈ 18.9 µM).
As for `Cc1ccc(S(=O)(=O)N2CCN(C3CC(=O)N(c4ccc(F)cc4)C3=O)CC2)cc1C` (stereo unspecified), the solubility (kinetic) was found to be 52.5 µg/mL (≈ 118 µM).
